According to paper PMC10954694, “Expression of ALS-PFN1 impairs vesicular degradation in iPSC-derived microglia” (Nature Communications, 2024):

Tests used:
profilin-1 (PFN1) M114T = target: T1, profilin-1 (PFN1) M114T (Homo sapiens, UniProt P07737, M114T); test: […]-1H HSQC NMR titration (global fit); DSF; type: binding
T1 construct: recombinant, SUMO tag cleaved, 15N labeled

profilin-1 (PFN1) WT = target: T2, profilin-1 (PFN1) WT (Homo sapiens, UniProt P07737); test: […]-1H HSQC NMR titration (global fit); DSF; type: binding
T2 construct: recombinant, SUMO tag cleaved, 15N labeled
T2 sequence (P07737 2-140): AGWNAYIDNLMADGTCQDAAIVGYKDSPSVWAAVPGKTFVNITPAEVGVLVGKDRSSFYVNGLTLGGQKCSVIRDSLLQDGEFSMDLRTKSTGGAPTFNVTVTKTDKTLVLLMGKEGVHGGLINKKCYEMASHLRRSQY

T1 sequence (P07737 2-140 M114T): as the sequence (P07737 2-140) above, with M113T counted along it

With `CCCCCCCC(=O)OC[C@H](COP(=O)(O)O[C@@H]1[C@H](O)[C@H](OP(=O)(O)O)[C@@H](O)[C@H](O)[C@H]1O)OC(=O)CCCCCCC` [PI3P] the Kd (profilin-1 (PFN1) M114T) was 370 ± 30 µM and the Kd (profilin-1 (PFN1) WT) was 1880 ± 190 µM.
